For one assay, the target named is T1, wild type α10 I domain (Homo sapiens, UniProt O75578).
T1 construct: Recombinant human α10 I domain-encoding plasmid (pGEX-2T-α10 I domain) was cloned using standard procedures; made in house; host or cells: bacteria (pGEX-2T plasmid; the Origami strain is stated only for α2 I domains)
T1 sequence (O75578 167-350 limits assumed): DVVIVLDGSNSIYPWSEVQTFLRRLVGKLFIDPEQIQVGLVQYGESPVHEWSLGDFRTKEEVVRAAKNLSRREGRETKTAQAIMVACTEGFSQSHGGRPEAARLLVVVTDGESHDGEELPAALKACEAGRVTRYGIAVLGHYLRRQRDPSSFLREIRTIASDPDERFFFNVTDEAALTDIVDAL
As to the kind of experiment: Concentration-dependent SPBA (KD) of wild-type α10 I domain. It is filed as binding. The settings on record: SPBA concentration dependence; for Saturation / quality of binding, wild type α10 I domain: up to 100 μg/ml; for KD, wild type α10 I domain: I domain up to 100 μg/ml, Fig. 9C and D. As for the experimental part: (§1) 96-well plates were prepared as for Fig. 1. A: binding to Toolkit II, B: binding to Toolkit III.
(§2) I domain adhesion was determined colorimetrically, as described, here termed solid phase binding assay (SPBA). Peptides were coated at 10 μg/ml for 1 h at 22 °C on Immulon-2 HB 96-well plates (Thermo Life Sciences, Basingstoke, UK), and blocked for 1 h with 200 μl of TBS containing 50 mg/ml bovine serum albumin. […] Wells were washed five times with 200 μl of adhesion buffer containing MgCl2 or EDTA, before adding 100 μl of adhesion buffer containing the anti-GST-HRP conjugate at 1:10,000 dilution for 1 h at room temperature. After washing, colour was developed using an ImmunoPure TMB Substrate Kit (Pierce) according to the manufacturer's instructions.

In the next assay the test system is C2C12-α10β1 cells. As to the kind of experiment: LDH-based SPBA of C2C12-α10β1 cell adhesion. More on the design: species or system mouse. The conditions noted are these: short THPs, 2 mM Mg^2 +, 1 h, Fig. 4B. As for the experimental part:
The mouse myoblast cell line, C2C12-α10β1 clone, expresses α10β1 as its sole collagen-binding integrin [16]. To investigate the binding of α10β1 to collagen in a cellular and whole integrin context, therefore, the adhesion of C2C12-α10β1 cells to Toolkits II and III was performed using two different approaches. First, SPBA was used, with lactate dehydrogenase to report the presence of adherent cells, after lysis, as described in Experimental. […] C2C12-α10B1 cells generally bound more prominently to those weaker peptides that supported just-observable binding of free I-domain. This may reflect avidity of the receptor-populated cell surface for the peptide-coated wells, or perhaps up-regulation of integrin affinity following receptor engagement. It is also possible that some cell binding reflects specific indirect interactions. For example, fibronectin, available either by intrinsic expression or from the serum supplement, binds well to II-44, and can also bind integrin αVβ3 [21].
Fig. 2 Binding of α10β1-transfected C2C12 cells to Collagen Toolkits. 96-well plates were coated with peptides as for Fig. 1, then C2C12-α10β1 cells (5 × 10^4 per well) were added and incubated for 1 h in the presence of either 2 mM MgCl2 or 2 mM EDTA as above. A: binding to Toolkit II. B: binding to Toolkit III.
The mouse myoblast cell line, C2C12, (control and transfectants, C2C12-α1β1, C2C12-α2β1, C2C12-α10β1 or C2C12-α11β1) was maintained in RPMI medium containing 10% fetal bovine serum, 2 mM glutamine, 100 IU/ml penicillin, 100 μg/ml streptomycin, and 2.5 μg/ml amphotericin. Cells were harvested by centrifugation, washed, and suspended at 0.5 × 10^6/ml in Tris-buffered saline supplemented with 5.5 mM glucose and either 2 mM EDTA or 2 mM MgCl2. SPBA was performed as follows: 100 μl of the cell suspension was added to peptide-coated wells [42] at 20 °C for 60 min. Cell adhesion was determined colorimetrically after lysis, using a lactate dehydrogenase (LDH)-based cell detection kit (Roche Diagnostics) according to the supplier's instructions.

In the next assay the test system is α2β1. More on the design: method as in 4 sources, ref [8], [10] = [8]; PMID 16326707; doi:10.1074/jbc.M509818200; 8 Raynal N. Hamaia S.W. Siljander P.R. Maddox B. Peachey A.R. Fernandez R. Foley L.J. Slatter D.A. Jarvis G.E. Farndale R.W. Use of synthetic peptides to locate novel integrin alpha2beta1-binding moti || [10]; PMID 16043429; doi:10.1074/jbc.M502431200; 10 Kim J.K. Xu Y. Xu X. Keene D.R. Gurusiddappa S. Liang X. Wary K.K. Hook M. A novel binding site in collagen type III for the integrins, alpha 1beta 1 and alpha 2beta 1 J. Biol. Chem. 280 2005 32512 ||| ref not given ||| ref [4] = [4]; PMID 19693543; doi:10.1007/s00441-009-0834-6; 4 Barczyk M. Carracedo S. Gullberg D. Integrins Cell Tissue Res. 339 1 2010 269 280 19693543 10.1007/s00441-009-0834-6 PMC2784866 ||| ref [12] = [12]; PMID 22654115; doi:10.1074/jbc.M112.353144; 12 Hamaia S.W. Pugh N. Raynal N. Nemoz B. Stone R. Gullberg D. Bihan D. Farndale R.W. Mapping of potent and specific binding motifs, GLOGEN and GVOGEA, for integrin alpha1beta1 using collagen toolkits. The conditions noted are these: cited from earlier work; for Binding to integrin α2β1, previously described: ref not given.

The target of another assay is T2, R215Q α10 I domain (Homo sapiens, UniProt O75578, R237Q).
T2 construct: made in house; host or cells: bacteria
T2 sequence (O75578 167-350 R237Q): T1 sequence (O75578 167-350 limits assumed) with R71Q
The assay is described as follows: Concentration-dependent SPBA (KD) of α10-R215Q I domain. In kind it is binding. The settings on record: SPBA concentration dependence; for Saturation / quality of binding, R215Q α10 I domain: up to 100 μg/ml; for KD, R215Q α10 I domain: I domain up to 100 μg/ml, Fig. 9C and D. The procedure: as §1, §2

Results on 3 substances are retold here after publication PMC5380659, “Unique charge-dependent constraint on collagen recognition by integrin α10β1” (Matrix Biology, 2017).

Substitutions are numbered along the chain they refer to. Entries after “also recorded” stand apart in the source; their conditions may differ. Some results are limits rather than exact numbers.

As to “GFOGER [THP containing GFOGER served as positive control, reference compound]”, on wild type α10 I domain, the “Saturation / quality of binding, wild type α10 I domain” value is “did not saturate at up to 100 μg/ml; also recorded: good ligand”. Moreover, in the assay on C2C12-α10β1 cells, the “Adhesion of C2C12-α10β1 cells to short triple-helical peptides” value (“Adhesion of C2C12-α10β1 cells” for short) is “less well”. For the same substance, the “Binding to integrin α2β1, previously described” value (“Binding to integrin α2β1” below) with α2β1 is reported as “good binding motifs”. In addition, the “Saturation / quality of binding, R215Q α10 I domain” value on R215Q α10 I domain is given as “did not saturate at up to 100 μg/ml; also recorded: good ligand”.

For the substance GLOGEN [short THP containing GLOGEN], on wild type α10 I domain, the “KD, wild type α10 I domain” value is approximately 10 µg/mL and the “Saturation / quality of binding, wild type α10 I domain” value was “saturation binding”. Further, the “Adhesion of C2C12-α10β1 cells” value with C2C12-α10β1 cells is “bound strongly”. In the assay with α2β1, the “Binding to integrin α2β1” value was “good binding motifs”. For the same substance, on R215Q α10 I domain, the “KD, R215Q α10 I domain” value is approximately 10 µg/mL and the “Saturation / quality of binding, R215Q α10 I domain” value is given as “enhanced binding of R215Q to GROGER but not GLOGEN; also recorded: saturation binding”.

“GROGER [short triple-helical peptide containing GROGER]”: at wild type α10 I domain, the “KD, wild type α10 I domain” value is more than 100 µg/mL and the “Saturation / quality of binding, wild type α10 I domain” value is reported as “bound poorly”. Further, the “Adhesion of C2C12-α10β1 cells” value with C2C12-α10β1 cells is “absence of binding”. In addition, the “Binding to integrin α2β1” value in the assay with α2β1 is on record as “good binding motifs”. For the same substance, the “Binding to α2β1” value with α2β1 (ref [8], [10]) was “relatively good α2β1-binding motif”. Moreover, at R215Q α10 I domain, the “KD, R215Q α10 I domain” value was “about 50 μg/ml” and the “Saturation / quality of binding, R215Q α10 I domain” value is “enhanced binding; also recorded: bound quite well”.
